The target of one assay is CDK2/Cyclin E1 (Homo sapiens (Human), UniProt P24941). The experiment in a line: CDK2/Cyclin E1 full length mobility shift assay. It is filed as biochemical.
Assay [1] has as its target T1, GSK3β (Homo sapiens, UniProt P49841). The settings on record: read-out: GSK3β Ki.
Description: (§1) The assay was initiated with the addition of ATP, following 15 minutes pre-incubation of enzyme and inhibitor at room temperature in the reaction mixture. The reaction was stopped after 30 minutes at room temperature by the addition of 50 μL of 80 mM EDTA.
Assay [2] addresses T1, GSK3β. The experiment in a line: biochemical. The settings on record: GSK3β Ki (nM).
Description: as §1

The text below walks through data of patent US11718603B2, “CDK2 inhibitors” (Pfizer Inc., priority 2019, dated 2023).

Like-named read-outs stand apart in the source and are kept apart here.

Description for CDK2/Cyclin E1: CDK2/Cyclin E1 Full Length Mobility Shift Assay
Wild-type CDK2/wild-type full length Cyclin E1 enzyme complex was produced in-house (baculoviral expression, LJIC-2080/LJIC-2103) and phosphorylated by CDK7/Cyclin H1/Mat1 enzyme complex with CDK2:CDK7 ratio of 50:1 (concentration mg/mL) in the presence of 10 mM MgCl2 and 5 mM ATP at room temperature for one hour. […] The assay was initiated with the addition of ATP, following a fifteen minutes pre-incubation of enzyme and inhibitor at room temperature in the reaction mixture. The reaction was stopped after 45 minutes at room temperature by the addition of 50 μL of 80 mM EDTA.

As to `COc1ccc(CC(=O)Nc2cc([C@@H]3CC[C@H](OC(=O)N4CCC4(C)C)C3)[nH]n2)cn1` [Example 145], the Ki (in general, the dissociation constant of the complex between target and ligand, obtained from inhibition or displacement) at CDK2/Cyclin E1 came out at 0.12 nM.

On to `CC[C@H](C)NC(=O)O[C@@H]1CC[C@H](c2cc(NC(=O)c3cc(COC)nn3C)n[nH]2)C1` [Example 14, (1R,3S)-3-[3-({[3-(methoxymethyl)-1-methyl-1H-pyrazol-5-yl]carbonyl}amino)-1H-pyrazol-5-yl]cyclopentyl (2S)-butan-2-ylcarbamate], for which the Ki stood at 294 nM on GSK3β [1] and 0.27 nM at CDK2/Cyclin E1.

As for `Cc1ncc(CC(=O)Nc2cc([C@@H]3CC[C@H](OC(=O)N[C@@H]4CCOC[C@H]4C)C3)[nH]n2)s1` (single isomer, unassigned; isomer b) [Example 511, (1S,3R)-3-(3-{[(2-methyl-1,3-thiazol-5-yl)acetyl]amino}-1H-pyrazol-5-yl)cyclopentyl [(3S*,4R*)-3-methyltetrahydro-2H-pyran-4-yl]carbamate- Isomer B], the Ki was 1.52 nM on CDK2/Cyclin E1 and 4.74 nM at GSK3β [2].

For the compound `Cc1ncc(CC(=O)Nc2cc([C@H]3CC[C@@H](OC(=O)NC(C)C)C3)[nH]n2)s1` [Example 2, (1R,3S)-3-(3-{[(2-methyl-1,3-thiazol-5-yl)acetyl]amino}-1H-pyrazol-5-yl)cyclopentyl propan-2-ylcarbamate], the Ki on CDK2/Cyclin E1 worked out at 0.31 nM.

On to `Cc1ncc(CC(=O)Nc2cc([C@@H]3CC[C@H](OC(=O)N[C@@H]4CCOC[C@H]4C)C3)[nH]n2)s1` (single isomer, unassigned; isomer a) [Example 510, (1S,3R)-3-(3-{[(2-methyl-1,3-thiazol-5-yl)acetyl]amino}-1H-pyrazol-5-yl)cyclopentyl [(3S*,4R*)-3-methyltetrahydro-2H-pyran-4-yl]carbamate- Isomer A], for which the results for the Ki at CDK2/Cyclin E1 and on GSK3β [2] were 0.19 nM and 14 nM, respectively.

Take `Cc1cc(CC(=O)Nc2cc([C@H]3CC[C@@H](OC(=O)N4CCCC[C@@H]4C)C3)[nH]n2)on1` [Example 640, (1R,3S)-3-(3-{[(3-methyl-1,2-oxazol-5-yl)acetyl]amino}-1H-pyrazol-5-yl)cyclopentyl(2S)-2-methylpiperidine-1-carboxylate]: the Ki on GSK3β [1] turned out to be 13.3 nM.
